Source: patent publication US4100274A, “Polypeptide” (Imperial Chemical Industries Limited, priority 1976, dated 1978)

Assay: toxic effects at multiples of the minimum active dose
Type: in vivo, rats
Details: dosed at one hundred times their minimum effective dose

| Structure (SMILES) | toxic effects |
| --- | --- |
| CC(C)C[C@H](NC(=O)[C@@H](Cc1ccccc1)NC(=O)[C@H](Cc1ccc(O)cc1)NC(=O)[C@H](CO)NC(=O)[C@H](Cc1c[nH]c2ccccc12)NC(=O)[C@H](Cc1c[nH]cn1)NC(=O)[C@@H]1CCC(=O)N1)C(=O)N[C@@H](CCCNC(=N)N)C(=O)N1CCC[C@H]1C(=O)NNC(N)=O [Example 4] | no toxic effects |
| COc1ccc(C[C@@H](NC(=O)[C@H](Cc2ccc(O)cc2)NC(=O)[C@H](CO)NC(=O)[C@H](Cc2c[nH]c3ccccc23)NC(=O)[C@H](Cc2c[nH]cn2)NC(=O)[C@@H]2CCC(=O)N2)C(=O)N[C@@H](CC(C)C)C(=O)N[C@@H](CCCNC(=N)N)C(=O)N2CCC[C@H]2C(=O)NNC(N)=O)cc1 [Example 6] | no toxic effects |
| CC(C)C[C@H](NC(=O)[C@@H](COC(C)(C)C)NC(=O)[C@H](Cc1ccc(O)cc1)NC(=O)[C@H](CO)NC(=O)[C@H](Cc1c[nH]c2ccccc12)NC(=O)[C@H](Cc1cnc[nH]1)NC(=O)[C@@H]1CCC(=O)N1)C(=O)N[C@@H](CCCNC(=N)N)C(=O)N1CCC[C@H]1C(=O)NNC(N)=O [Example 7] | no toxic effects |
